Source: PubChem BioAssay AID1918996 (Molecular Pharmacology Branch, DTP, NCI, 2023)
Each block holds one compound with its values, some of them ahead of it.

System: 349418-098-R-PDC complex spheroid growth
Assay: Anticancer human tumor 349418-098-R-PDC patient-derived lung adenocarcinoma cell line growth inhibition [AhR]
Details: for IC50: curve of first compound; for viability, T/C: stronger effect = lower value
Outline: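 Agents were dosed in half-log steps down from roughly clinical Cmax, or from 10 microM where Cmax was unknown, alone and with AhR antagonists. Read-out: percent test/control growth of tumor spheroids containing HUVEC and MSC stromal cells.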

[1] = second compound 0.1 µM, first compound 0.000949 µM
[2] = second compound 0.1 µM, first compound 0.003 µM
[3] = second compound 0.1 µM, first compound 0.00949 µM
[4] = second compound 0.1 µM, first compound 0.03 µM
[5] = second compound 0.1 µM, first compound 0.0949 µM
[6] = second compound 0.1 µM, first compound 0.3 µM
[7] = second compound 0.316 µM, first compound 0.000949 µM
[8] = second compound 0.316 µM, first compound 0.003 µM
[9] = second compound 0.316 µM, first compound 0.00949 µM
[10] = second compound 0.316 µM, first compound 0.03 µM
[11] = second compound 0.316 µM, first compound 0.0949 µM
[12] = second compound 0.316 µM, first compound 0.3 µM
[13] = second compound 1 µM, first compound 0.000949 µM
[14] = second compound 1 µM, first compound 0.003 µM
[15] = second compound 1 µM, first compound 0.00949 µM
[16] = second compound 1 µM, first compound 0.03 µM
[17] = second compound 1 µM, first compound 0.0949 µM
[18] = second compound 1 µM, first compound 0.3 µM
[19] = second compound 3.16 µM, first compound 0.000949 µM
[20] = second compound 3.16 µM, first compound 0.003 µM
[21] = second compound 3.16 µM, first compound 0.00949 µM
[22] = second compound 3.16 µM, first compound 0.03 µM
[23] = second compound 3.16 µM, first compound 0.0949 µM
[24] = second compound 3.16 µM, first compound 0.3 µM
[25] = second compound 10 µM, first compound 0.000949 µM
[26] = second compound 10 µM, first compound 0.003 µM
[27] = second compound 10 µM, first compound 0.00949 µM
[28] = second compound 10 µM, first compound 0.03 µM
[29] = second compound 10 µM, first compound 0.0949 µM
[30] = second compound 10 µM, first compound 0.3 µM
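Note: spheroids exposed to agents for seven days before luminescence viability read.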
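Throughout, for viability, T/C: spheroids also contain HUVEC endothelial cells and human MSC stroma.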

- IC50 (second compound 0.1 µM): 1.41 nM
- IC50 (second compound 0.316 µM): 1.28 nM
- IC50 (second compound 1 µM): 1.06 nM
- IC50 (second compound 3.16 µM): < 0.949 nM
- IC50 (second compound 10 µM): < 0.949 nM
Structure (SMILES): CC(C)CC(NC(=O)C(Cc1ccccc1)NC(=O)c1cnccn1)B(O)O (stereo not given) + Cc1cncc(-c2nc(NCCc3c[nH]c4ccccc34)c3ncn(C(C)C)c3n2)c1
- viability, T/C [1]: 70.6%
- viability, T/C [2]: 11.2%
- viability, T/C [3]: 1.67%
- viability, T/C [4]: 0.88%
- viability, T/C [5]: 0.78%
- viability, T/C [6]: 0.75%
- viability, T/C [7]: 64.6%
- viability, T/C [8]: 8.44%
- viability, T/C [9]: 1.59%
- viability, T/C [10]: 0.9%
- viability, T/C [11]: 0.92%
- viability, T/C [12]: 0.62%
- viability, T/C [13]: 54.1%
- viability, T/C [14]: 9.85%
- viability, T/C [15]: 1.7%
- viability, T/C [16]: 0.85%
- viability, T/C [17]: 0.77%
- viability, T/C [18]: 1.06%
- viability, T/C [19]: 20.6%
- viability, T/C [20]: 5.89%
- viability, T/C [21]: 1.01%
- viability, T/C [22]: 0.57%
- viability, T/C [23]: 0.58%
- viability, T/C [24]: 0.62%
- viability, T/C [25]: 2.07%
- viability, T/C [26]: 1.16%
- viability, T/C [27]: 0.23%
- viability, T/C [28]: 0.14%
- viability, T/C [29]: 0.11%
- viability, T/C [30]: 0.15%

- IC50 (second compound 0.1 µM): < 0.949 nM
- IC50 (second compound 0.316 µM): < 0.949 nM
- IC50 (second compound 1 µM): < 0.949 nM
- IC50 (second compound 3.16 µM): < 0.949 nM
- IC50 (second compound 10 µM): < 0.949 nM
Structure (SMILES): CCc1c2c(nc3ccc(O)cc13)-c1cc3c(c(=O)n1C2)COC(=O)[C@]3(O)CC + Cc1cncc(-c2nc(NCCc3c[nH]c4ccccc34)c3ncn(C(C)C)c3n2)c1
- viability, T/C [1]: 49.5%
- viability, T/C [2]: 24.2%
- viability, T/C [3]: 6.34%
- viability, T/C [4]: 3.54%
- viability, T/C [5]: 2.3%
- viability, T/C [6]: 1.59%
- viability, T/C [7]: 47.7%
- viability, T/C [8]: 16.8%
- viability, T/C [9]: 5.66%
- viability, T/C [10]: 3.5%
- viability, T/C [11]: 2.11%
- viability, T/C [12]: 1.51%
- viability, T/C [13]: 41.9%
- viability, T/C [14]: 14.4%
- viability, T/C [15]: 5.54%
- viability, T/C [16]: 3.53%
- viability, T/C [17]: 2.48%
- viability, T/C [18]: 1.41%
- viability, T/C [19]: 12.8%
- viability, T/C [20]: 6.98%
- viability, T/C [21]: 3.19%
- viability, T/C [22]: 2.37%
- viability, T/C [23]: 1.61%
- viability, T/C [24]: 1.27%
- viability, T/C [25]: 1.19%
- viability, T/C [26]: 1.44%
- viability, T/C [27]: 0.76%
- viability, T/C [28]: 0.65%
- viability, T/C [29]: 0.41%
- viability, T/C [30]: 0.29%

- IC50 (second compound 0.1 µM): 195 nM
- IC50 (second compound 0.316 µM): 242 nM
- IC50 (second compound 1 µM): 267 nM
- IC50 (second compound 3.16 µM): < 31.6 nM
- IC50 (second compound 10 µM): < 31.6 nM
Structure (SMILES): COc1cc(Nc2ncc3c(n2)-c2ccc(Cl)cc2C(c2c(F)cccc2OC)=NC3)ccc1C(=O)O + Cc1cncc(-c2nc(NCCc3c[nH]c4ccccc34)c3ncn(C(C)C)c3n2)c1
- viability, T/C (second compound 0.1 µM, first compound 0.0316 µM): 68.8%
- viability, T/C (second compound 0.1 µM, first compound 0.1 µM): 58.2%
- viability, T/C (second compound 0.1 µM, first compound 0.316 µM): 42.4%
- viability, T/C (second compound 0.1 µM, first compound 1 µM): 40.8%
- viability, T/C (second compound 0.1 µM, first compound 3.16 µM): 36.3%
- viability, T/C (second compound 0.1 µM, first compound 10 µM): 33.1%
- viability, T/C (second compound 0.316 µM, first compound 0.0316 µM): 72.6%
- viability, T/C (second compound 0.316 µM, first compound 0.1 µM): 68.6%
- viability, T/C (second compound 0.316 µM, first compound 0.316 µM): 44.4%
- viability, T/C (second compound 0.316 µM, first compound 1 µM): 47.8%
- viability, T/C (second compound 0.316 µM, first compound 3.16 µM): 41.1%
- viability, T/C (second compound 0.316 µM, first compound 10 µM): 43.9%
- viability, T/C (second compound 1 µM, first compound 0.0316 µM): 67.7%
- viability, T/C (second compound 1 µM, first compound 0.1 µM): 57.3%
- viability, T/C (second compound 1 µM, first compound 0.316 µM): 46.7%
- viability, T/C (second compound 1 µM, first compound 1 µM): 48.8%
- viability, T/C (second compound 1 µM, first compound 3.16 µM): 40.3%
- viability, T/C (second compound 1 µM, first compound 10 µM): 44.8%
- viability, T/C (second compound 3.16 µM, first compound 0.0316 µM): 19.7%
- viability, T/C (second compound 3.16 µM, first compound 0.1 µM): 20%
- viability, T/C (second compound 3.16 µM, first compound 0.316 µM): 14.1%
- viability, T/C (second compound 3.16 µM, first compound 1 µM): 12.7%
- viability, T/C (second compound 3.16 µM, first compound 3.16 µM): 14.7%
- viability, T/C (second compound 3.16 µM, first compound 10 µM): 17.9%
- viability, T/C (second compound 10 µM, first compound 0.0316 µM): 3.34%
- viability, T/C (second compound 10 µM, first compound 0.1 µM): 2.89%
- viability, T/C (second compound 10 µM, first compound 0.316 µM): 2.53%
- viability, T/C (second compound 10 µM, first compound 1 µM): 2.17%
- viability, T/C (second compound 10 µM, first compound 3.16 µM): 2.59%
- viability, T/C (second compound 10 µM, first compound 10 µM): 3.53%
